Assay: Routine blood parameters before and after treatment
Type: in vivo
Settings: person
From the text: TABLE 1 Example 1 (patient)

Question: For `CC(C)[C@@H]1NC(=O)[C@H](CCCCN)NC(=O)[C@@H](Cc2c[nH]c3ccccc23)NC(=O)[C@H](Cc2ccc(O)cc2)NC(=O)[C@@H](NC(=O)[C@H](N)Cc2ccc3ccccc3c2)CSSC[C@@H](C(=O)N[C@H](C(N)=O)[C@@H](C)O)NC1=O` [Lanreotide], which routine blood parameters is on record?
Answer: The routine blood parameters was “remained unvaried”.
